The target of one test is Carbonic anhydrase 9 (Homo sapiens, UniProt Q16790). Kind of test: Inhibitory constant against human Carbonic anhydrase IX.
A further test concerns the target Carbonic anhydrase 1 (Homo sapiens, UniProt P00915).
For a further test, the target named is Carbonic anhydrase 2 (Homo sapiens, UniProt P00918).

Chain of Carbonic anhydrase 1 (P00915 whole entry): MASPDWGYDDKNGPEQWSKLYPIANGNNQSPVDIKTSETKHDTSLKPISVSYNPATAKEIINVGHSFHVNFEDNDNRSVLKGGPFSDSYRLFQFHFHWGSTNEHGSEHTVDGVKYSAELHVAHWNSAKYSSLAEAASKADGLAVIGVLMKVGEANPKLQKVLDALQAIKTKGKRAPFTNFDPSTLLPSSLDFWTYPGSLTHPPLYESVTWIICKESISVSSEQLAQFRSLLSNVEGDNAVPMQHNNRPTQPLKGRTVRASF
Description for Carbonic anhydrase 2: Inhibitory constant against human Carbonic anhydrase II

The term Ki denotes the dissociation constant of the complex between target and ligand, obtained from inhibition or displacement. Higher therefore signals lower affinity. Consider `CCCn1c(S)nnc1-c1ccc(S(=O)(=O)c2ccccc2)cc1`, for which the Ki on Carbonic anhydrase 9 was 119 µM; at Carbonic anhydrase 1, 290 µM; on Carbonic anhydrase 2, 276 µM.
The compound `Nc1nnc(S)s1` had a Ki on Carbonic anhydrase 9 of 9.3 µM.
Same read-out and setting: the same measure for `O=[N+]([O-])c1ccc(SNc2n[nH]c(=S)s2)cc1`: 256 µM.
Same read-out and setting: the same measure for `CN(C)c1cccc2c(S(=O)(=O)Nc3nnc(S)s3)cccc12`: 296 µM; for `O=C(Nc1nnc(S)s1)c1ccccn1`: 306 µM; for `O=C(Nc1ccc(Cl)c(Cl)c1)Nc1nnc(S)s1`: 271 µM.
For `O=C(O)c1cccnc1C(=O)Nc1nnc(S)s1`, the Ki at Carbonic anhydrase 9 was found to be 242 µM.
On to `Cc1cccc(-n2c(-c3ccc(S(=O)(=O)c4ccc(Br)cc4)cc3)n[nH]c2=S)c1`, for which the Ki on Carbonic anhydrase 9 amounted to 320 µM; on Carbonic anhydrase 1, 254 µM; on Carbonic anhydrase 2, 301 µM.
For `CCCCn1c(-c2ccc(S(=O)(=O)c3ccc(Cl)cc3)cc2)n[nH]c1=S`, the Ki on Carbonic anhydrase 9 was 96.8 µM; on Carbonic anhydrase 1 it was 273 µM; at Carbonic anhydrase 2, 227 µM.
The corresponding values for `O=[N+]([O-])c1ccccc1S(=O)(=O)Nc1n[nH]c(=S)s1` are 315 µM, 303 µM and 230 µM.
In turn, `O=C(Nc1nnc(S)s1)NS(=O)(=O)Nc1nnc(S)s1` registered a Ki on Carbonic anhydrase 9 of 322 µM.
The same measure, in the same setting: the same measure for `O=C(Nc1nnc(S)s1)N(c1ccccc1)c1ccccc1`: 271 µM.
For `CC(=O)Nc1nnc(S)s1`, the values for the Ki on Carbonic anhydrase 9, on Carbonic anhydrase 1 and at Carbonic anhydrase 2 were 9.5 µM, 4.5 µM and 8.8 µM, respectively.
The corresponding values for `O=C(Nc1nnc(S)s1)c1c(F)c(F)c(F)c(F)c1F` are 312 µM, 308 µM and 129 µM.
The like results for `CCCn1c(-c2ccc(S(=O)(=O)c3ccc(Br)cc3)cc2)n[nH]c1=S` were, in that order, 772 µM, 508 µM and 382 µM.
Consider `CCCCn1c(S)nnc1-c1ccc(S(=O)(=O)c2ccccc2)cc1`, for which the figures for the Ki at Carbonic anhydrase 1 and at Carbonic anhydrase 2 were 415 µM and 604 µM, respectively.
`CCCCn1c(-c2ccc(S(=O)(=O)c3ccc(Br)cc3)cc2)n[nH]c1=S` showed a Ki at Carbonic anhydrase 9 of 11.5 µM.
As to `CCCn1c(-c2ccc(S(=O)(=O)c3ccc(Cl)cc3)cc2)n[nH]c1=S`, the figures for the Ki on Carbonic anhydrase 9, at Carbonic anhydrase 1 and on Carbonic anhydrase 2 were 9.8 µM, 548 µM and 618 µM, respectively.
For `Cc1ccc(-n2c(-c3ccc(S(=O)(=O)c4ccc(Br)cc4)cc3)n[nH]c2=S)cc1`, the Ki is 60.4 µM at Carbonic anhydrase 9, 249 µM at Carbonic anhydrase 1 and 251 µM on Carbonic anhydrase 2.

Values taken from ChEMBL document CHEMBL1141925, “Carbonic anhydrase inhibitors. Inhibition of the cytosolic and tumor-associated carbonic anhydrase isozymes I, II, and IX with a series of 1,3,4-thiadiazole- and 1,2,4-triazole-thiols” (Bioorg Med Chem Lett, 2005).
